According to EP0485091A1, “Process for the production of analogues of immunomycin” (MERCK & CO. INC., priority 1990, dated 1992):

Tested on: T lymphocytes
Assay: T-cell proliferation assay (tritiated thymidine uptake, ionomycin + PMA stimulation; also called IL-2 assay)
Assay type: cell-based, C57B1/6 mice
Conditions: for IC50: Mouse T cell cultures, pulsed with 3H-thymidine for 4 hours prior to harvesting at 48 hours
Procedure: Cells were pelleted by centrifugation at 1500 rpm for 8 minutes. Contaminating red cells were removed by treating the pellet with ammonium chloride lysing buffer (GIBCO) for 2 minutes at 4°C. Cold medium was added and cells were again centrifuged at 1500 rpm for 8 minutes. T lymphocytes were then isolated by separation of the cell suspension on nylon wool columns as follows: Nylon wool columns were prepared by packing approximately 4 grams of washed and dried nylon wool into 20 ml plastic syringes. The columns were sterilized by autoclaving at 250°F for 30 minutes. Nylon wool columns were wetted with warm (37°C) culture medium and rinsed with the same medium. Washed spleen cells resuspended in warm medium were slowly applied to the nylon wool. The columns were then incubated in an upright position at 37°C for 1 hour. Non-adherent […] were eluted from the columns with warm culture medium and the cell suspensions were spun as above.
The cell suspension was immediately distributed into 96 well flat-bottom microculture plates (Costar) at 200 µl/well. […] The proliferation of T lymphocytes was assessed by measurement of tritiated thymidine incorporation. After 44 hours of culturing, the cells were pulse-labelled with 2 µCi/well of tritiated thymidine (NEN, Cambridge, MA). After another 4 hours of incubation, cultures were harvested on glass fiber filters using a multiple sample harvester. Radioactivity of filter discs corresponding to individual wells as measured by standard liquid scintillation counting methods (Betacounter). Mean counts per minute of replicate wells were calculated and the results expressed as percent inhibition of tritiated thymidine uptake (profileration) as follows [drawing 11]
• 1. Mouse T cell cultures were pulsed with ³H-thymidine for 4 hours prior to harvesting at 48 hours. • 2.

For `CCC[C@@H]1/C=C(\C)C[C@H](C)C[C@H](OC)[C@H]2O[C@@](O)(C(=O)C(=O)N3CCCC[C@H]3C(=O)O[C@H](/C(C)=C/[C@@H]3CC[C@@H](O)[C@H](OC)C3)[C@H](C)[C@@H](O)CC1=O)[C@H](C)C[C@@H]2OC` [fraction 510], the “Inhibition of T-cell proliferation after addition of recombinant human IL-2” value (50 units/ml of recombinant human IL-2 added at the initiation of culture) was “reversed”, the IC50 (T-lymphocyte) was 0.82 ng/mL and the IC50 (T-lymphocyte, same value in molar unit) was 1.02 nM.

In the case of `C=CC[C@@H]1/C=C(\C)C[C@H](C)C[C@H](OC)[C@H]2O[C@@](O)(C(=O)C(=O)N3CCCC[C@H]3C(=O)O[C@H](/C(C)=C/[C@@H]3CC[C@@H](O)[C@H](OC)C3)[C@H](C)[C@@H](O)CC1=O)[C@H](C)C[C@@H]2OC` [L-679,934, reference compound], the inhibition at 0.01 µg/mL (Mus musculus, T-lymphocyte, 48 h, read-out: percent inhibition of tritiated thymidine uptake (proliferation)) is reported as 99%.
